Test results: paper PMC9459403, “New inhibitors of cathepsin V impair tumor cell proliferation and elastin degradation and increase immune cell cytotoxicity” (Computational and Structural Biotechnology Journal, 2022)

Columns and labels:
Cathepsin V = biological target: T1, Cathepsin V (Homo sapiens, UniProt O60911); test: Determination of relative inhibition, substrate Z-Phe-Arg-AMC; type: biochemical; details: inhibitor 50 μM; substrate 2 μM; mean ± SD (n = 2); read-out: Cathepsin V Ri (%) relative inhibition
T1 construct: made in house; host or cells: Pichia pastoris
Protocol: (§1) Human recombinant cathepsin V was expressed in Pichia Pastoris, and human recombinant cathepsin L was expressed in Escherichia coli, as reported, [51]. To determine the activities of cathepsins V and L, 100 mM acetate buffer (pH 5.5), containing 0.1 % PEG 8000 (Sigma-Aldrich, St. Louis, MO, USA), 5 mM cysteine, and 1.5 mM EDTA was used. Prior to the assay, the enzyme was activated in the assay buffer for 5 min at 37 °C.
(§2) The effect of the inhibitors on cathepsin V and L activity was determined using the substrate Z-Phe-Arg-AMC (Bachem, Bubendorf, Switzerland). The reaction was initiated by adding 90 μL of the activated enzyme (final concentration 2.5 ng/mL and 0.02 nM for cathepsins V and L, respectively) to the wells of a black microtiter plate containing 5 μL of substrate (with a final concentration 2 μM) and 5 μL of inhibitor (with a final concentration of 50 μM). The formation of fluorescent degradation products during the reaction was monitored continuously at 460 nm ± 10 nm with excitation at 380 nm ± 20 nm at 37 °C on a Tecan Infinite M1000 (Mannedorf, Switzerland) spectrofluorometer. All assay mixtures contained 5 % (v/v) DMSO. To prevent false-positive inhibition due to the formation of compound aggregates, 0.01 % Triton X-100 was used. All measurements were performed in triplicate and repeated at least twice. Relative inhibition was calculated using the following equation: relative inhibition (%) = 100(1- vi/vo), where vi and vo denote the reaction velocities in the presence and absence of the inhibitor, respectively.

[1] = biological target: T2, human recombinant cathepsin L (Homo sapiens, UniProt P07711); test: as above; type: biochemical; details: inhibitor 50 μM; substrate 2 μM; mean ± SD (n = 2); read-out: Cathepsin L Ri (%) relative inhibition
T2 construct: made in house; host or cells: Escherichia coli
Protocol: as §1, §2

MCF7 cells = test: Proliferation assay (CFSE-labeled cells, flow cytometry); type: cell-based, human; details: 72 h
Protocol: To assess the effect of cathepsin V inhibitors on cell proliferation, MCF7 cells were fluorescently labeled with carboxyfluorescein succinimidyl ester (CFSE; ImmunoChemistry Technologies, Bloomington, MN, USA) in PBS for 15 min at room temperature according to the manufacturer’s instructions. Cells were washed with PBS, resuspended in complete medium, seeded (at 4 × 10^4 cells/well) into 24-well plates, and allowed to adhere overnight. Cells were then treated with the following inhibitors: compound 7 (10 μM), E-64d (10 μM), CLIK-148 (1 μM), LHVS (10 nM), pepstatin (20 μM), their combinations, or DMSO (0.1 %) in 500 μL of medium for 72 h at 37 °C. To prepare cells for flow cytometry, cells were detached and transferred to round-bottomed polystyrene tubes and washed with PBS. Before measurement, 7-aminoactinomycin D (7-AAD; ImmunoChemistry Technologies, Bloomington, MN, USA) was added according to the manufacturer’s instructions to exclude dead cells. Therefore, the green fluorescence arising from CFSE was monitored only for viable cells. The measurement was performed using a FACSCalibur instrument (BD Biosciences, San Jose, CA, USA).

[2] = system: U-937-derived macrophages; test: Intracellular elastin-FITC degradation; type: cell-based, human
Protocol: To evaluate the effect of the inhibitors on the elastolytic activity of cathepsin V, we assessed the intracellular degradation of elastin-FITC, a soluble bovine neck ligament elastin that is heavily labeled with FITC such that the fluorescence of the conjugate is quenched. Upon proteolysis, fluorescence is recovered and can be detected. U-937 cells, differentiated into macrophage-like cells, were seeded (at 1 × 10^5 cells/well) into 24-well plates with 500 μL of medium supplemented with 50 nM PMA. Inhibitors or DMSO (0.1 %) and elastin-FITC (10 μg/mL; AnaSpec, Fermont, CA, USA) were added to the medium and incubated for 24 h at 37 °C. Cells were detached and washed with PBS, and propidium iodide (BD Bioscience) was added to exclude dead cells. Therefore, green fluorescence arising from elastin-FITC degradation was monitored only for viable cells. The measurement was performed using a FACSCalibur instrument (BD Biosciences).

[3] = system: NK-92 effector cells on target K-562 cells; test: Calcein AM release assay (cytotoxicity); type: cell-based, human; details: effector cells treated 10 µM, 6 h
Protocol: (§3) Effector cells (NK-92 or TALL-104; 1 × 10^6/ml) were treated with E-64d (10 µM) or compound 7 (10 µM) for 6 h. NK-92 cells were pre-treated with 1000 IU IL2/mL overnight prior to the addition of inhibitors. Effector cells were added to a 96-well U-bottom plate to achieve a selected effector-to-target ratio (E:T). Target K-562 cells were labelled with 15 µM Calcein-AM (Sigma) in serum-free RPMI 1640 medium for 30 min at 37 °C. Cells were then washed twice and resuspended in complete RPMI 1640 medium. Target cells (n = 5000) were added to the effectors. The plate was centrifuged at 200 × g for 1 min and incubated at 37 °C and 5 % CO2 for 4 h. After incubation, the plate was centrifuged at 700 × g for 5 min. The supernatant (50 µL) was transferred to a new microtiter plate to measure the fluorescence of the released Calcein-AM with a Tecan M1000 microtiter plate reader using 496 nm excitation and 516 nm emission filters. The percentage of cytotoxicity was calculated as follows: 100(test release-spontaneous release)/(total release-spontaneous release). Spontaneous release was measured in wells containing only target cells. For total release, 2 % Triton X-100 was added to the wells to achieve lysis of target cells. Lytic units (LU) were calculated using the inverse of the number of effector cells needed to lyse 30 % of the target cells multiplied by 100.

[4] = system: TALL-104 effector cells on target K-562 cells; test: Calcein AM release assay (cytotoxicity); type: cell-based, human; details: effector cells treated 10 µM, 6 h
Protocol: as §3

T2 sequence (P07711 114-333): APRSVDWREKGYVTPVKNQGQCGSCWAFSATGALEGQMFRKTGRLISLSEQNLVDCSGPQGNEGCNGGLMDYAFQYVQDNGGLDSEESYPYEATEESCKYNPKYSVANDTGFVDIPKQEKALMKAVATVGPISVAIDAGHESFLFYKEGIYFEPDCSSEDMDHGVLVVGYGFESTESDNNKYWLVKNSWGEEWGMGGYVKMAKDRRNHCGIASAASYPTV
T1 sequence (O60911 114-334): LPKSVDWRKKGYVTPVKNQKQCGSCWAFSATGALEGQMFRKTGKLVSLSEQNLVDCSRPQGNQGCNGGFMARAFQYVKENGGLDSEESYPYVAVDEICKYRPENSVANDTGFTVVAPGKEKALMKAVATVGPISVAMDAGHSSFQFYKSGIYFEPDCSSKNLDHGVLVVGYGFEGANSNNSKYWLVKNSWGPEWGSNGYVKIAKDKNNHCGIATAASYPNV

With `O=C(NCc1cccc2ccccc12)NCC1CCN(C(=O)Oc2ccccc2)CC1` [Compound 7, Phenyl 4-((3-(naphthalen-1-ylmethyl)ureido)methyl)piperidine-1-carboxylate] the inhibition at 50 µM (Cathepsin V) was over 20%, the inhibition at 50 µM [1] was 12.1 ± 1.8% and the “increase of fluorescence intensity of CFSE-labeled cells compared to control cells” value (MCF7 cells; 10 μM, higher CFSE = less proliferation) was 50.6 ± 5.1%. The “increase of relative CFSE fluorescence intensity, co-treatment with CLIK-148, LHVS, and compound 7 together” value (MCF7 cells; compound 7 10 μM + CLIK-148 1 μM + LHVS 10 nM) was 46.1 ± 5.2%, the “decrease of elastin-FITC degradation” value ([2]; 10 μM, 24 h, vs DMSO) was 9.5 ± 1.6% and the “elastin-FITC degradation, compound 7 added to CLIK-148” value ([2]; compound 7 10 μM + CLIK-148, vs control cells and CLIK-148 alone) was “significantly decreased”. The “cytotoxicity of NK-92 cells (target cell killing)” value [3] was “significantly increased” and the “cytotoxicity of TALL-104 cells (target cell killing)” value [4] was “significantly increased”.
